Where two headings read alike, the source gives them in different places. *1 amine or outer side, *2 acyl side, *3 side chain or, on linkers, in order; H or OH if unused. Where a SMILES comes first, the peptide text is derived from it. Bridges are numbered along the chain shown (N, C = ends). [ ]: non-standard residue; d: D form. The star is where a group is joined. hPhe(3-Cl-4-CF3) = N[C@@H](CCc1ccc(C(F)(F)F)c(Cl)c1)C(=O)O; NPrPhe(4-CF3) = CCCN[C@@H](Cc1ccc(C(F)(F)F)cc1)C(=O)O; X15 = Cc1ccc(C[C@@H](C(=O)[*:2])N(CCC(C)C)[*:1])cc1; Pip(4,4-F2) = O=C(O)[C@@H]1CC(F)(F)CCN1; NMeGly(cPent) = CN[C@H](C(=O)O)C1CCCC1; Pro(4,4-F2) = O=C(O)[C@@H]1CC(F)(F)CN1; NMeD = CN[C@@H](CC(=O)O)C(=O)O; NMeL = CN[C@@H](CC(C)C)C(=O)O; Morpholide = C1CN(*)CCO1; NMeA = CN[C@@H](C)C(=O)O; Ac5c = NC1(C(=O)O)CCCC1; Aze = O=C(O)[C@@H]1CCN1; Ac4c = NC1(C(=O)O)CCC1; Sar = CNCC(=O)O
What was measured:
[1] = molecular target: GDP-bound HRAS wild-type protein (Homo sapiens, UniProt P01112); assay: Binding to HRAS by surface plasmon resonance (SPR), Single Cycle Kinetics; details: SPR, GDP-bound HRAS wild-type protein vs GDP-bound KRAS wild-type protein
Chain of GDP-bound HRAS wild-type protein (P01112 whole entry): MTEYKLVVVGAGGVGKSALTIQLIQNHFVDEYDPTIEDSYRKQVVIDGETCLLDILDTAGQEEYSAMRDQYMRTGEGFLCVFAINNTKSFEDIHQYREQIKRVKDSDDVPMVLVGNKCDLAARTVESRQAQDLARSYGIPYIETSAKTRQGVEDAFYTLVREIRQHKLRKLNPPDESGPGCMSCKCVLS

[2] = molecular target: GDP-bound NRAS wild-type protein (Homo sapiens, UniProt P01111); assay: Binding to NRAS by surface plasmon resonance (SPR), Single Cycle Kinetics; details: SPR, GDP-bound NRAS wild-type protein vs GDP-bound KRAS wild-type protein
Chain of GDP-bound NRAS wild-type protein (P01111 whole entry): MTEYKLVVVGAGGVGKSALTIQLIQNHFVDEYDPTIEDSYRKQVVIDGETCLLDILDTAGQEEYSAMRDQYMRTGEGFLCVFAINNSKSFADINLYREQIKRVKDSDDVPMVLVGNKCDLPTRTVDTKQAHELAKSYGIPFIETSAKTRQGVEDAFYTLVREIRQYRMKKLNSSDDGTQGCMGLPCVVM

[3] = molecular target: GDP-bound KRAS wild-type protein (Homo sapiens, UniProt P01116); assay: Binding to KRAS by surface plasmon resonance (SPR), Single Cycle Kinetics; details: GDP-bound KRAS wild-type protein, read-out: KRAS KD
Chain of GDP-bound KRAS wild-type protein (P01116 whole entry): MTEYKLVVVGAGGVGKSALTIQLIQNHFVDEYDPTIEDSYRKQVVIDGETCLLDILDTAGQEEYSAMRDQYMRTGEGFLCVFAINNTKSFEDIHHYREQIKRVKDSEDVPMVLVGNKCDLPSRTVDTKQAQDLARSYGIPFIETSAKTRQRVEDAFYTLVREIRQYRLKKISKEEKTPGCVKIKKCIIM

[4] = SPR Single Cycle Kinetics, 1:1 binding model

Kd ([3]; SPR, Single Cycle Kinetics) | Kd [3, 4] | SMILES | HRAS/KRAS (ratio of KD value for HRAS to KD value for KRAS) [1] | NRAS/KRAS (ratio of KD value for NRAS to KD value for KRAS) [2] | also measured
340 pM | – | CCC[C@H]1C(=O)N[C@@H]([C@@H](C)CC)C(=O)N(C)CC(=O)N(C)[C@H]2C/C=C\CCN(C2=O)[C@@H](Cc2ccc(C)cc2)C(=O)N(C)CC(=O)N[C@@H](CCc2ccc(C(F)(F)F)c(Cl)c2)C(=O)N2C[C@H](CC)C[C@H]2C(=O)NC2(CC(C)(C)C2)C(=O)N(C)[C@@H](C2CCCC2)C(=O)N(C)[C@H](C(=O)N(C)C)CC(=O)N1C [PP2212] | B (a compound having 3 or more and less than 10 is denoted as B) | A (a compound having 10 or more and less than 20 is denoted as A) | –
310 pM | – | CCCN(C)C(=O)[C@@H]1CC(=O)N(C)[C@@H](CC(F)F)C(=O)N[C@@H]([C@@H](C)CC)C(=O)N(C)CC(=O)N(C)[C@H]2C/C=C\CCN(C2=O)[C@@H](Cc2ccc(C(F)(F)F)cc2)C(=O)N(C)CC(=O)N[C@@H](CCc2cc(F)c(C(F)(F)F)c(F)c2)C(=O)N2C[C@@H](C)C[C@H]2C(=O)NC2(CC(C)(C)C2)C(=O)N(C)[C@@H](C2CCCC2)C(=O)N1C [PP2040] | A (a compound having 10 or more and less than 20 is denoted as A) | A (a compound having 10 or more and less than 20 is denoted as A) | –
430 pM | – | CCO[C@@H]1C[C@H]2C(=O)NC3(CCC3)C(=O)N(C)[C@@H](C3CCCC3)C(=O)N(C)[C@H](C(=O)N(C)C)CC(=O)N(C)[C@@H](CC(C)C)C(=O)N[C@@H]([C@@H](C)CC)C(=O)N3CC[C@H]3C(=O)N(C)[C@H]3CC(C)=CCN(C3=O)[C@@H](Cc3ccc(C(F)(F)F)cc3)C(=O)N(C)CC(=O)N[C@@H](CCc3cc(F)c(C(F)(F)F)c(F)c3)C(=O)N2C1 [PP1033] | C (A compound having a KD ratio of 0.1 or more and less than 3 is denoted as C) | C (A compound having a KD ratio of 0.1 or more and less than 3 is denoted as C) | –
– | 2300 pM | CCCN1C(=O)CN(C)C(=O)[C@@H]2CCN2C(=O)[C@H]([C@@H](C)CC)NC(=O)[C@H](CC(C)C)N(C)C(=O)C[C@@H](C(=O)N(C)C)NC(=O)[C@H](C2CCCC2)N(C)C(=O)C2(CCCC2)NC(=O)[C@@H]2CC(F)(F)CN2C(=O)[C@H](CCc2ccc(C(F)(F)F)c(Cl)c2)NC(=O)CN(C)C(=O)[C@@H]1Cc1ccc(C(F)(F)F)cc1 [PP0375] ([NMeL]I[Aze][Sar][NPrPhe(4-CF3)][Sar][hPhe(3-Cl-4-CF3)][Pro(4,4-F2)][Ac5c][NMeGly(cPent)]D-NMe2; lactam N-11) | B (a compound having 3 or more and less than 10 is denoted as B) | B (a compound having 3 or more and less than 10 is denoted as B) | –
– | – | CCO[C@@H]1C[C@H]2C(=O)NC3(CCC3)C(=O)N(C)[C@@H](C3CCCC3)C(=O)N(C)[C@H](C(=O)N(C)CC)CC(=O)N(C)[C@@H](CC(F)F)C(=O)N[C@@H]([C@@H](C)CC)C(=O)N(C)CC(=O)N(C)[C@H]3C/C=C\CCN(C3=O)[C@@H](Cc3ccc(C(F)(F)F)cc3)C(=O)N(C)CC(=O)N[C@@H](CCc3cc(F)c(C(F)(F)F)c(F)c3)C(=O)N2C1 [PP1303] | – | – | HRAS/KRAS (ratio of KD value for HRAS to KD value for KRAS) ([1]; KD ratio class): A (a compound having 10 or more and less than 20 is denoted as A); NRAS/KRAS (ratio of KD value for NRAS to KD value for KRAS) ([2]; KD ratio class): AA (a compound having 20 or more is denoted as AA); Kd ([3]; SPR, Single Cycle Kinetics, 1:1 binding model): 68 pM
63 pM | – | CCO[C@@H]1C[C@H]2C(=O)NC3(CC(C)(C)C3)C(=O)N(C)[C@@H](C3CCCC3)C(=O)N(C)[C@H](C(=O)N(C)CC)CC(=O)N(C)[C@@H](CC(C)C)C(=O)N[C@@H]([C@@H](C)CC)C(=O)N(C)CC(=O)N(C)[C@H]3C/C=C\CCN(C3=O)[C@@H](Cc3ccc(C(F)F)cc3)C(=O)N(C)CC(=O)N[C@@H](CCc3cc(F)c(C(F)(F)F)c(F)c3)C(=O)N2C1 [PP2046] | A (a compound having 10 or more and less than 20 is denoted as A) | A (a compound having 10 or more and less than 20 is denoted as A) | –
– | 240 pM | C=CC[C@H]1C(=O)N[C@@H]([C@@H](C)CC)C(=O)N(C)CC(=O)N(C)[C@H]2CCCCCN(C2=O)[C@@H](Cc2ccc(C(F)(F)F)cc2)C(=O)N(C)CC(=O)N[C@@H](CCc2cc(F)c(C(F)(F)F)c(F)c2)C(=O)N2C[C@H](OCC)C[C@H]2C(=O)NC2(CCC2)C(=O)N(C)[C@@H](C2CCCC2)C(=O)N(C)[C@H](C(=O)N(C)C)CC(=O)N1C [PP0665] | – | – | HRAS/KRAS (ratio of KD value with respect to HRAS to KD value with respect to KRAS) [1]: B (a compound having 3 or more and less than 10 is denoted as B); NRAS/KRAS (ratio of KD value with respect to NRAS to KD value with respect to KRAS) [2]: B (a compound having 3 or more and less than 10 is denoted as B)
– | 260 pM | CC[C@H](C)[C@@H]1NC(=O)[C@H](CC(C)C)N(C)C(=O)C[C@@H](C(=O)N2CCOCC2)N(C)C(=O)[C@H](C2CCCC2)N(C)C(=O)C2(CCCC2)NC(=O)[C@@H]2CCCN2C(=O)[C@H](CCc2ccc(C(F)(F)F)c(Cl)c2)NC(=O)CN(C)C(=O)[C@H](Cc2ccc(C)cc2)N(CCC(C)C)C(=O)[C@@H]2CCN2C(=O)[C@H](C)N(C)C1=O [PP0086] ([NMeL]I[NMeA][Aze][X15][Sar][hPhe(3-Cl-4-CF3)]P[Ac5c][NMeGly(cPent)][NMeD]-Morpholide; lactam N-11) | B (a compound having 3 or more and less than 10 is denoted as B) | C (A compound having a KD ratio of 0.1 or more and less than 3 is denoted as C) | –
– | 1000 pM | CCCN1C(=O)CN(C)C(=O)CNC(=O)[C@H]([C@@H](C)CC)NC(=O)[C@H](CC(C)C)N(C)C(=O)C[C@@H](C(=O)N(C)C)NC(=O)[C@H](C2CCCC2)N(C)C(=O)C2(CCC2)NC(=O)[C@@H]2CCCN2C(=O)[C@H](CCc2ccc(C(F)(F)F)c(Cl)c2)NC(=O)CN(C)C(=O)[C@@H]1Cc1ccc(C(F)(F)F)cc1 [PP0362] ([NMeL]IG[Sar][NPrPhe(4-CF3)][Sar][hPhe(3-Cl-4-CF3)]P[Ac4c][NMeGly(cPent)]D-NMe2; lactam N-11) | B (a compound having 3 or more and less than 10 is denoted as B) | B (a compound having 3 or more and less than 10 is denoted as B) | –
– | 420 pM | CCCN1C(=O)CN(C)C(=O)CN(C)C(=O)[C@H]([C@@H](C)CC)NC(=O)[C@H](CC(C)C)N(C)C(=O)C[C@@H](C(=O)N2CCOCC2)N(C)C(=O)[C@H](C2CCCC2)N(C)C(=O)C2(CCCC2)NC(=O)[C@@H]2CC(F)(F)CCN2C(=O)[C@H](CCc2ccc(C(F)(F)F)c(Cl)c2)NC(=O)CN(C)C(=O)[C@@H]1Cc1ccc(C(F)(F)F)cc1 [PP0264] ([NMeL]I[Sar][Sar][NPrPhe(4-CF3)][Sar][hPhe(3-Cl-4-CF3)][Pip(4,4-F2)][Ac5c][NMeGly(cPent)][NMeD]-Morpholide; lactam N-11) | C (A compound having a KD ratio of 0.1 or more and less than 3 is denoted as C) | B (a compound having 3 or more and less than 10 is denoted as B) | –
79 pM | – | CCC[C@H]1C(=O)N[C@@H]([C@@H](C)CC)C(=O)N(C2CC2)CC(=O)N(C)[C@H]2C/C=C\CCN(C2=O)[C@@H](Cc2ccc(C)cc2)C(=O)N(C)CC(=O)N[C@@H](CCc2ccc(C(F)(F)F)c(OC)c2)C(=O)N2C[C@H](OCC)C[C@H]2C(=O)N(C)C2(CCC2)C(=O)N(C)[C@@H](C2CCCC2)C(=O)N(C)[C@H](C(=O)N(C)C)CC(=O)N1C [PP2328, (2S,8S,12R,14S,20S,23S,27S,30S,36S,38Z)-20-cyclopentyl-32-cyclopropyl-12-ethoxy-8-[2-[3-methoxy-4-(trifluoromethyl)phenyl]ethyl]-N,N,4,16,19,22,26,35-octamethyl-30-[(1S)-1-methylpropyl]-3,6,9,15,18,21,25,28,31,34,42-undecaoxo-27-propyl-2-(p-tolylmethyl)spiro[1,4,7,10,16,19,22,26,29,32,35-undecazatricyclo[34.5.1.0^10,14]dotetracont-38-ene-17,1′-cyclobutane]-23-carboxamide] | A (a compound having 10 or more and less than 20 is denoted as A) | A (a compound having 10 or more and less than 20 is denoted as A) | –
100 pM | – | CCCCO[C@H]1CCN2C(=O)[C@H](CCc3cc(F)c(C(F)(F)F)c(F)c3)NC(=O)CN(C)C(=O)[C@H](Cc3ccc(C(F)(F)F)cc3)N3CCCC[C@@H](C3=O)N(C)C(=O)CN(C)C(=O)[C@H]([C@@H](C)CC)NC(=O)[C@H](CC(C)C)N(C)C(=O)C[C@@H](C(=O)N3CCOCC3)N(C)C(=O)[C@H](C3CCCC3)N(C)C(=O)C3(CCC3)NC(=O)[C@H]12 [PP1071] | B (a compound having 3 or more and less than 10 is denoted as B) | B (a compound having 3 or more and less than 10 is denoted as B) | –
– | 73 pM | CC[C@H](C)[C@@H]1NC(=O)[C@H](CC(F)(F)F)N(C)C(=O)C[C@@H](C(=O)N2CCOCC2)N(C)C(=O)[C@H](C2CCCC2)N(C)C(=O)C2(CCCC2)NC(=O)[C@@H]2CCCN2C(=O)[C@H](CCc2cc(F)c(C(F)(F)F)c(F)c2)NC(=O)CN(C)C(=O)[C@H](Cc2ccc(C(F)(F)F)cc2)N2CCCC[C@@H](C2=O)N(C)C(=O)CN(C)C1=O [PP0594] | – | – | HRAS/KRAS (ratio of KD value with respect to HRAS to KD value with respect to KRAS) [1]: B (a compound having 3 or more and less than 10 is denoted as B); NRAS/KRAS (ratio of KD value with respect to NRAS to KD value with respect to KRAS) [2]: C (A compound having a KD ratio of 0.1 or more and less than 3 is denoted as C)
